ChEMBL document CHEMBL3734655, “Identification of camphor derivatives as novel M2 ion channel inhibitors of influenza A virus” (Medchemcomm, 2015)
Active and inactive are the calls of the source. The calls are words filed in the database; no cut-off is given here.

Experiments:
Influenza A virus [1] = experiment: Antiviral activity against M2 ion channel S31N mutant expressing amantadine-resistant Influenza A virus infected in MDCK cells preincubated for 30 mins followed by viral infection measured after 72 hrs by CCK-8 assay; assay type: functional, organism-based
Influenza A virus [2] = experiment: Antiviral activity against amantadine-resistant Influenza A virus (A/WSN/1933) infected in MDCK cells preincubated for 30 mins followed by viral infection measured after 72 hrs by CCK-8 assay; assay type: functional, organism-based; details: A/WSN/1933(H1N1)

| Compound | Activity (Influenza A virus [1]) | Activity (Influenza A virus [2]) |
| --- | --- | --- |
| CC1(C)[C@H]2CC[C@](C)(C2)[C@H]1CN | inactive | inactive |
| NC1CC2CCC1C2 (stereo not drawn) | inactive | inactive |
| N[C@H]1C[C@@H]2CC[C@H]1C2 | inactive | inactive |
| C[C@H]1[C@H]([C@H](C)N)C[C@@H]2C[C@H]1C2(C)C | inactive | inactive |
| CC1(C)[C@@H]2CC[C@@]1(C)[C@@H](CN)C2 | inactive | inactive |
| C[C@H]1[C@H](N)C[C@@H]2C[C@H]1C2(C)C | inactive | inactive |
| C[C@H]1[C@H](CN)C[C@@H]2C[C@H]1C2(C)C | inactive | inactive |
| C[C@@H](N)[C@H]1C[C@H]2CC[C@]1(C)C2(C)C.Cl | inactive | inactive |
| CC1(C)[C@@H]2CC[C@@]1(C)[C@@H](N)C2 (relative stereo) | inactive | inactive |
